Measurements as given in US10738028B2, “Spiro three-membered ring, spiro five-membered ring peptide deformylase inhibitor and use thereof in antibacteria and anti-tumor” (priority 2016, dated 2020).

How the values were obtained:
Type in all cases: cell-based
[1] = tested on: methicillin-sensitive Staphylococcus epidermidis (MSSE); assay: MIC, two-fold agar dilution (CLSI), clinical isolates
Summary of the method: (§1)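 Following the American Clinical and Laboratory Standards Institute procedure, agar two-fold dilution served to determine minimum inhibitory concentrations.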

[2] = tested on: methicillin-resistant Staphylococcus aureus (MRSA); assay: as above
Summary of the method: as §1

[3] = tested on: methicillin-resistant Staphylococcus epidermidis (MRSE); assay: as above
Summary of the method: as §1

[4] = tested on: Enterococcus faecium (EFM); assay: as above
Summary of the method: as §1

[5] = tested on: Streptococcus pneoumoniae (SPN); assay: as above
Summary of the method: as §1

[6] = tested on: Moraxella catarrhalis (BCA); assay: as above
Summary of the method: as §1

[7] = tested on: Escherichia coli (including ESBLs, non-ESBLs); assay: as above
Summary of the method: as §1

[8] = tested on: Enterococcus faecalis (EFA); assay: as above
Summary of the method: as §1

[9] = tested on: methicillin-sensitive Staphylococcus aureus (MSSA); assay: as above
Summary of the method: as §1

[10] = tested on: HCT-116 colorectal cancer cell line; assay: CCK-8 proliferation inhibition; conditions: Homo sapiens, HCT-116, 72 h, concentration of 30 μM; 72 hours; CCK-8; read-out: HCT116 inhibition rate/%
Summary of the method: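 Viability read-out: 1:10 diluted CCK-8 after 72 h compound exposure at 37 °C, 5% CO2. Cells (2000/well, McCoy's 5A plus 10% newborn bovine serum) pre-cultured overnight; vehicle control 1‰ DMSO.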

CCCC[C@H](CC(=O)NO)C(=O)N1CC2(CC2)C[C@H]1C(=O)Nc1ccno1 [Example 54, (S)-5-((R)-2-(2-(hydroxyamino)-2-oxoethyl)hexanoyl)-N-(isoxazol-5-yl)-5-spiro[2.4]heptane-6-carboxamide]
Anti-bacterial activity (MIC), strain MSSE 15-3 ([1]; clinical isolate MSSE 15-3): > 32 µg/mL | Anti-bacterial activity (MIC), strain MSSE 15-4 ([1]; clinical isolate MSSE 15-4): > 32 µg/mL | Anti-bacterial activity (MIC), strain MSSE 15-5 ([1]; clinical isolate MSSE 15-5): > 32 µg/mL | Anti-bacterial activity (MIC), strain MSSE 15-6 ([1]; clinical isolate MSSE 15-6): > 32 µg/mL | Anti-bacterial activity (MIC), strain MRSA 15-1 ([2]; clinical isolate MRSA 15-1): > 32 µg/mL | Anti-bacterial activity (MIC), strain MRSA 15-2 ([2]; clinical isolate MRSA 15-2): > 32 µg/mL | Anti-bacterial activity (MIC), strain MRSA 15-3 ([2]; clinical isolate MRSA 15-3): > 32 µg/mL | Anti-bacterial activity (MIC), strain MRSA 15-4 ([2]; clinical isolate MRSA 15-4): > 32 µg/mL | Anti-bacterial activity (MIC), strain MRSE 15-1 ([3]; clinical isolate MRSE 15-1): > 32 µg/mL | Anti-bacterial activity (MIC), strain MRSE 15-2 ([3]; clinical isolate MRSE 15-2): > 32 µg/mL | Anti-bacterial activity (MIC), strain MRSE 15-3 ([3]; clinical isolate MRSE 15-3): > 32 µg/mL | Anti-bacterial activity (MIC), strain MRSE 15-7 ([3]; clinical isolate MRSE 15-7): > 32 µg/mL | Anti-bacterial activity (MIC), strain EFM 15-1 ([4]; clinical isolate EFM 15-1): > 32 µg/mL | Anti-bacterial activity (MIC), strain EFM 15-2 ([4]; clinical isolate EFM 15-2): > 32 µg/mL | Anti-bacterial activity (MIC), strain EFM 15-3 ([4]; clinical isolate EFM 15-3): > 32 µg/mL | Anti-bacterial activity (MIC), strain EFM 15-4 ([4]; clinical isolate EFM 15-4): > 32 µg/mL | Anti-bacterial activity (MIC), strain EFM 15-5 ([4]; clinical isolate EFM 15-5): 2 µg/mL | Anti-bacterial activity (MIC), strain EFM 15-6 ([4]; clinical isolate EFM 15-6): 8 µg/mL | Anti-bacterial activity (MIC), strain SPN 16-2 ([5]; clinical isolate SPN 16-2): 4 µg/mL | Anti-bacterial activity (MIC), strain SPN 16-4 ([5]; clinical isolate SPN 16-4): 4 µg/mL | Anti-bacterial activity (MIC), strain BCA 14-1 ([6]; clinical isolate BCA 14-1): > 32 µg/mL | Anti-bacterial activity (MIC), strain BCA 14-4 ([6]; clinical isolate BCA 14-4): > 32 µg/mL | Anti-bacterial activity (MIC), strain BCA 14-5 ([6]; clinical isolate BCA 14-5): 32 µg/mL | Anti-bacterial activity (MIC), strain BCA 14-6 ([6]; clinical isolate BCA 14-6): > 32 µg/mL | Anti-bacterial activity (MIC), strain BCA 14-7 ([6]; clinical isolate BCA 14-7): > 32 µg/mL | Anti-bacterial activity (MIC), strain BCA 14-8 ([6]; clinical isolate BCA 14-8): > 32 µg/mL | Anti-bacterial activity (MIC), strain BCA 14-10 ([6]; clinical isolate BCA 14-10): > 32 µg/mL | Anti-bacterial activity (MIC), strain ECO+ 15-1 ([7]; clinical isolate ECO+ 15-1): > 32 µg/mL | Anti-bacterial activity (MIC), strain ECO+ 15-2 ([7]; clinical isolate ECO+ 15-2): > 32 µg/mL | Anti-bacterial activity (MIC), strain ECO+ 15-3 ([7]; clinical isolate ECO+ 15-3): > 32 µg/mL | Anti-bacterial activity (MIC), strain ECO+ 15-4 ([7]; clinical isolate ECO+ 15-4): > 32 µg/mL | Anti-bacterial activity (MIC), strain ECO− 15-1 ([7]; clinical isolate ECO− 15-1): > 32 µg/mL | Anti-bacterial activity (MIC), strain ECO− 15-2 ([7]; clinical isolate ECO− 15-2): > 32 µg/mL | Anti-bacterial activity (MIC), strain ECO− 15-3 ([7]; clinical isolate ECO− 15-3): > 32 µg/mL | Anti-bacterial activity (MIC), strain ECO− 15-4 ([7]; clinical isolate ECO− 15-4): > 32 µg/mL | Anti-bacterial activity (MIC), strain EFA 15-1 ([8]; clinical isolate EFA 15-1): > 32 µg/mL | Anti-bacterial activity (MIC), strain EFA 15-2 ([8]; clinical isolate EFA 15-2): > 32 µg/mL | Anti-bacterial activity (MIC), strain EFA 15-3 ([8]; clinical isolate EFA 15-3): > 32 µg/mL | Anti-bacterial activity (MIC), strain EFA 15-4 ([8]; clinical isolate EFA 15-4): > 32 µg/mL | Anti-bacterial activity (MIC), strain EFA 15-5 ([8]; clinical isolate EFA 15-5): > 32 µg/mL | Anti-bacterial activity (MIC), strain EFA 15-6 ([8]; clinical isolate EFA 15-6): > 32 µg/mL | Anti-bacterial activity (MIC), strain EFA 15-9 ([8]; clinical isolate EFA 15-9): 32 µg/mL | Anti-bacterial activity (MIC), strain MSSA 15-3 ([9]; clinical isolate MSSA 15-3): > 32 µg/mL | Anti-bacterial activity (MIC), strain MSSA 15-4 ([9]; clinical isolate MSSA 15-4): > 32 µg/mL | Anti-bacterial activity (MIC), strain MSSA 15-5 ([9]; clinical isolate MSSA 15-5): > 32 µg/mL | Anti-bacterial activity (MIC), strain MSSA 15-6 ([9]; clinical isolate MSSA 15-6): > 32 µg/mL | inhibition at 30 µM [10]: 8%
